From patent US10821100B2, “Triazolone compounds as mPGES-1 inhibitors” (Glenmark Pharmaceuticals S.A., priority 2012, dated 2020)

Molecular target: T1, Recombinant human mPGES-1 (Homo sapiens, UniProt O14684)
T1 construct: made in house; host or cells: CHO cells (crude microsomal fractions)
T1 sequence (O14684 1-152): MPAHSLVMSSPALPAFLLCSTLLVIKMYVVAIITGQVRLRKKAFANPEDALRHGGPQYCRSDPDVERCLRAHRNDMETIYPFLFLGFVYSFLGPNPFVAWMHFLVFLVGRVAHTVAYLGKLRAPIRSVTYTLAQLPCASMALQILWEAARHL
Assay: In-vitro screening of mPGES-1 inhibitors (inhibition of PGE2 formation from PGH2, HTRF detection)
Format: biochemical
Conditions: mPGES-1 enzyme; for inhibition at 1 µM: 1 μM test compound, read-out: Percentage inhibition at 1 μM; for inhibition at 1 µM / inhibition at 10 µM: crude microsomal fractions; for inhibition at 10 µM: 10 μM test compound, read-out: Percentage inhibition at 10 μM; for IC50: class symbols
In short: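 Crude CHO-expressed microsomes (40–60 μg/mL protein) preincubated 10 min with compound in 0.1 M potassium phosphate/2 mM EDTA containing 2.5 mM GSH, 0.5% DMSO final. PGH2 (15 μM) reacted 1 min, stopped with stannous chloride. PGE2 quantified by HTRF, IC50 from nonlinear regression of percent inhibition.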

inhibition at 1 µM [%]	inhibition at 10 µM [%]	IC50 [nM]	Structure (SMILES)
87	100	> 100	CC(C)(C)C(=O)NCc1ccc(Cl)c(-c2nn(-c3ccc(C(F)(F)F)cn3)c(=O)[nH]2)c1F [Example-94, N-(4-Chloro-2-fluoro-3-(5-oxo-1-(5-(trifluoromethyl)pyridin-2-yl)-4,5-dihydro-1H-1,2,4-triazol-3-yl)benzyl)pivalamide]
98.7	99	< 50	CC(C)(C)C(=O)NCc1ccc(Cl)c(-c2nn(-c3ccc(C(F)(F)F)nc3)c(=O)[nH]2)c1F [Example-95, N-(4-Chloro-2-fluoro-3-(5-oxo-1-(6-(trifluoromethyl)pyridin-3-yl)-4,5-dihydro-1H-1,2,4-triazol-3-yl)benzyl)pivalamide]
52.2	68.7		O=c1[nH]c(-c2cc(S(=O)(=O)NC3CC3)ccc2Cl)nn1-c1ccc(C(F)(F)F)cc1 [Example-96, 4-Chloro-N-cyclopropyl-3-(5-oxo-1-(4-(trifluoromethyl)phenyl)-4,5-dihydro-1H-1,2,4-triazol-3-yl)benzenesulfonamide]
20.2	6.88		O=c1[nH]c(-c2cc(S(=O)(=O)NC3CC3)ccc2Cl)nn1-c1ccc(Cl)cc1 [Example-97, 4-Chloro-3-(1-(4-chlorophenyl)-5-oxo-4,5-dihydro-1H-1,2,4-triazol-3-yl)-N-cyclopropylbenzenesulfonamide]
97.5	99.5	< 50	CC(C)(C)C(=O)NCc1ccc(Cl)c(-c2nn(-c3ccc(Cl)cc3)c(=O)[nH]2)c1F [Example-98, N-(4-Chloro-3-(1-(4-chlorophenyl)-5-oxo-4,5-dihydro-1H-1,2,4-triazol-3-yl)-2-fluorobenzyl)pivalamide]
95.3	98.5	< 50	O=C(NCc1ccc(Cl)c(-c2nn(-c3ccc(C(F)(F)F)cc3)c(=O)[nH]2)c1)C(F)(F)F [Example-99, N-(4-Chloro-3-(5-oxo-1-(4-(trifluoromethyl)phenyl)-4,5-dihydro-1H-1,2,4-triazol-3-yl)benzyl)-2,2,2-trifluoroacetamide]
100	98.6	< 50	CC(C)(C)C(=O)NCc1ccc(Cl)c(-c2nn(-c3ccc(C(F)(F)F)cc3)c(=O)[nH]2)c1 [Example-100, N-(4-Chloro-3-(5-oxo-1-(4-(trifluoromethyl)phenyl)-4,5-dihydro-1H-1,2,4-triazol-3-yl)benzyl)pivalamide]
95	98.2	< 50	O=C(NCc1ccc(Cl)c(-c2nn(-c3ccc(C(F)(F)F)cc3)c(=O)[nH]2)c1)[C@H]1CCCO1 [Example-101, (R)—N-(4-Chloro-3-(5-oxo-1-(4-(trifluoromethyl)phenyl)-4,5-dihydro-1H-1,2,4-triazol-3-yl)benzyl)tetrahydrofuran-2-carboxamide]
96.5	98	< 50	O=c1[nH]c(-c2cc(CNS(=O)(=O)C3CC3)ccc2Cl)nn1-c1ccc(C(F)(F)F)cc1 [Example-102, N-(4-Chloro-3-(5-oxo-1-(4-(trifluoromethyl)phenyl)-4,5-dihydro-1H-1,2,4-triazol-3-yl)benzyl)cyclopropanesulfonamide]
19.9	51.1		CC(C)(C)C(=O)NCc1ccc(Cl)c(-c2nn(C3CCCCC3)c(=O)[nH]2)c1F [Example-103, N-(4-Chloro-3-(1-cyclohexyl-5-oxo-4,5-dihydro-1H-1,2,4-triazol-3-yl)-2-fluorobenzyl)pivalamide]
96.9	99.5	< 50	O=C(NCc1ccc(Cl)c(-c2nn(-c3ccc(C(F)(F)F)cc3)c(=O)[nH]2)c1)c1ccccc1F [Example-104, N-(4-Chloro-3-(5-oxo-1-(4-(trifluoromethyl)phenyl)-4,5-dihydro-1H-1,2,4-triazol-3-yl)benzyl)-2-fluorobenzamide]
